Results on two compounds are retold here after patent EP0542549A1, “Use of cosmetic composition” (UNILEVER PLC, priority 1991, dated 1993).

Each structure is given as a SMILES string.

For the assay, the system named is pig skin stratum corneum. In words: In vitro measurement of stratum corneum extensibility (linear extensometer). The conditions noted are these: 44% relative humidity; for Extensibility ratio: ratio of force/extension slopes before and after treatment, 2% extension at 20mm/min, application 4µl/cm² (25ng), mean ± standard deviation, ratio >1 = increased extensibility. From the text: The benefits of the composition following topical application to skin can be quantified by in vitro measurements employing pig skin and an extensometer, in accordance with the following procedure.
Pig skin was selected for this evaluation and this was first cleaned with an aqueous ethanol-chlorohexidine solution (15 : 75 : 10:, Hibitane; ICI Pharmaceuticals). Hairs were removed by clipping followed by depilation with commercially-available thioglycolate cream (Immac : Whitehall Laboratories) and 0.4mm thick slices of skin were removed using a Davies electric skin dermatome. Stratum corneum was isolated by incubating strips of skin, dermis side down, into a solution of trypsin (0.25g% Flow Laboratories) and phosphate-buffered saline (PBS) comprising 137mM NaCl; 2.68mM KCl; 8.1mM NaHPO₄; 1.47mM KH₂PO₄ at pH 7.4 for 2-4h at 37°C. The dermis was separated from the epidermis using forceps and the latter was incubated in fresh trypsin-PBS solution overnight at 4°C. The enzyme solution was changed several times on the following day before the stratum corneum was washed with sonication (Lucas Dawe Ultrasonics; bath sonicleaner) and three changes of PBS to remove trypsin and residual cells. The corneum was then washed with distilled water containing 0.02% sodium azide (to inhibit bacterial growth) before floating onto fluorocarbon filter (Spectra-mesh; 149µ mesh). After drying at ambient temperature and humidity the sheets of corneum were cut into rectangular strips measuring 1 x 2.5cm. The pieces of corneum were mounted at each end with plastic tape (Flow tape; Flow Laboratories) and a 6mm hole was punched into the centre of each tab. During this whole procedure the orientation of the stratum corneum was maintained to ensure samples were treated on their external surfaces only in subsequent experiments. Samples were stored in petri-dishes at ambient humidity and temperature until required. […]
The extensibility of pig skin stratum corneum was measured following treatment with ω-(O-linoleoyl)ceramide having the structure (12), as herein defined. […]

Consider `CCCCC/C=C\C/C=C\CCCCCCCC(=O)O` [Linoleate, reference compound], for which the Extensibility ratio was found to be 1.29 ± 0.16. Turning to `CCCCC/C=C\C/C=C\CCCCCCCC(=O)OCCCCCCCCCCCCCCCCCCCCCC(=O)NC(CO)C(O)C=CCCCCCCCCCCCCC` (stereo not drawn) [Ceramide structure (12), ω-(O-linoleoyl)ceramide], the Extensibility ratio worked out at 2.11 ± 0.45. The “extensibility ratio compared with hydrolysed ceramide structure (12) or linoleate” value (students t test, significance at the 5% level, 4µl/cm² (25ng)) is listed as “significantly greater”.
